Measured values published in ChEMBL document CHEMBL1128133, “Synthesis and binding affinity of 2,3,3a,4,9,9a-hexahydro-9,4-(iminomethano)-1H-benz[f]indenes. Ligands for the PCP site of the NMDA receptor” (Bioorg Med Chem Lett, 1995).

Assay: Binding affinity against PCP site of the NMDA Receptor using [3H]TCP radioligand

SMILES	Ki [nM]
c1ccc2c(c1)C1CNC2C2CCCC12 (stereo not given)	52
Oc1cccc(C2(N3CCCCC3)CCCCC2)c1	38
C[C@@H]1NC2c3cccc(N)c3C1C1CCCC21 (stereo in doubt; 13)	1200
C[C@]12N[C@H](Cc3ccccc31)c1ccccc12 [DIZOCILPINE]	2.2
CN1CC2c3c(N)cccc3C1C1C=CCC21 (stereo not given)	701
Nc1cccc2c1C1CNC2C2CCCC12 (stereo not given)	14
C[C@H]1NC2c3cccc(N)c3C1C1CCCC21 (stereo not given in full)	8
CN1CC2c3ccccc3C1C1CCCC21 (stereo not given)	1140
CN1CC2c3c(N)cccc3C1C1CCCC21 (stereo not given)	226
C[C@@H]1NC2c3cccc(N)c3C1C1CCCC21 (stereo in doubt; 12a)	89
